Experimental data as given in publication PMC10065799, “High-throughput profiling of sequence recognition by tyrosine kinases and SH2 domains using bacterial peptide display” (eLife, 2023).

Key:
c-Src kinase domain = c-Src kinase domain (Homo sapiens, UniProt P12931); experiment: pTyr-Var library bacterial peptide display kinase screen (enrichment scores); assay type: biochemical;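 on c-Src hit?: Hit requires p below 0.05 and at least twofold variant vs reference change plus filters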
Fyn kinase domain = experiment: as above; assay type: biochemical, human;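 on Fyn hit?: Hit requires p below 0.05 and at least twofold variant vs reference change plus filters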
Hck kinase domain = experiment: as above; assay type: biochemical, human
c-Abl kinase domain = biological target: T1, c-Abl kinase domain (Mus musculus, UniProt P00520); experiment: as above; assay type: biochemical;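 on c-Abl hit?: Hit requires p below 0.05 and at least twofold variant vs reference change plus filters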
T1 sequence (P00520 242-493 limits assumed): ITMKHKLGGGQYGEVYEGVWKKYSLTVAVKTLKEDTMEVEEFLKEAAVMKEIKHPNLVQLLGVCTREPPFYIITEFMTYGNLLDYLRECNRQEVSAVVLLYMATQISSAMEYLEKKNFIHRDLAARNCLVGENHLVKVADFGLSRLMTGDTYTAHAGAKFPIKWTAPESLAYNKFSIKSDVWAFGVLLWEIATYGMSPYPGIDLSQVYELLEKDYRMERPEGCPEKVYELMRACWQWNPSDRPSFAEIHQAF

Jak2 = experiment: as above; assay type: biochemical, human
AncSZ kinase domain = experiment: as above; assay type: biochemical;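 on AncSZ hit?: Hit requires p below 0.05 and at least twofold variant vs reference change plus filters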
Fer kinase domain = experiment: as above; assay type: biochemical, mouse
Fes = experiment: as above; assay type: biochemical
FGFR1 kinase domain = experiment: as above; assay type: biochemical, human
FGFR3 kinase domain = experiment: as above; assay type: biochemical, human
EPHB1 kinase domain = experiment: as above; assay type: biochemical, human
EPHB2 kinase domain = experiment: as above; assay type: biochemical, human
MERTK kinase domain = experiment: as above; assay type: biochemical, human
[1] = system: 4G10 Platinum pan-phosphotyrosine antibody; experiment: Phosphorylated pTyr-Var library selection with biotinylated pan-phosphotyrosine antibody; assay type: binding, mouse; details: enrichment score, sheet SH2-vs-peptide
Description: After the desired time of library phosphorylation, kinase activity was quenched with 25 mM EDTA and the cells were washed with PBS containing 0.2% BSA. Kinase-treated cells were then labeled with a 1:1000 dilution of biotinylated 4G10 Platinum anti-phosphotyrosine antibody (Millipore) for an hour on ice and washed with PBS containing 0.1% BSA and 2 mM EDTA (isolation buffer). The cells were finally resuspended in PBS containing 0.1% BSA. The phosphorylated, antibody-labeled cells were then mixed with magnetic beads from Dynabeads FlowComp Flexi kit (Invitrogen), at a ratio of 37.5 μL of washed beads per 50 μL of cell suspension, diluted into 450 μL of isolation buffer. The suspension was rotated at 4 °C for 30 minutes, then 375 μL of isolation buffer was added and the beads were separated from the bulk solution on a magnetic rack. The beads were washed once with 1 mL of isolation buffer, and then the supertantant were removed by aspiration. […] The bead/lysate mixture was centrifuged to pellet the beads and the mixture was stored at -20 °C.

c-Src SH2 domain = c-Src SH2 domain (Homo sapiens, UniProt P12931); experiment: pTyr-Var library SH2 domain screen with SH2-dynabeads (enrichment scores); details: sheet c-Src
SHP2 C-SH2 domain = experiment: as above
Grb2 SH2 domain = experiment: as above
[2] = mean of log2 of enrichment over R1-R4
[3] = pTyr-Var library, enrichment score, replicate 1
[4] = pTyr-Var library, enrichment score, replicate 3
[5] = pTyr-Var library, enrichment score, replicate 4
[6] = variant versus reference peptide
[7] = variant versus reference peptide, significant hit TRUE/FALSE
[8] = mean of log2(variant) minus mean of log2(reference)
[9] = mean of log2 enrichment of variant peptide, n = 5
[10] = pTyr-Var library, variant peptide enrichment, mean of n = 5
[11] = mean of log2 enrichment of variant peptide, n = 4
[12] = pTyr-Var library, variant peptide enrichment, mean of n = 4

ATVQNYLPKCI [A2M_Y817_L815Q]
c-Src mean of log2(enrichment) (c-Src kinase domain; [2]): -1.474 | c-Src enrich. R1 (c-Src kinase domain; [3]): 0.3685 | c-Src enrich. R3 (c-Src kinase domain; [4]): 0.3322 | c-Src enrich. R4 (c-Src kinase domain; [5]): 0.416 | c-Src difference (mean log2 variant - mean log2 reference) (c-Src kinase domain; [6]): -0.08063 | c-Src hit? (c-Src kinase domain; [7]): FALSE | Fyn mean of log2(enrichment) (Fyn kinase domain; [2]): -1.466 | Fyn enrich. R1 (Fyn kinase domain; [3]): 0.4872 | Fyn enrich. R3 (Fyn kinase domain; [4]): 0.3635 | Fyn enrich. R4 (Fyn kinase domain; [5]): 0.2869 | Fyn difference (mean log2 variant - mean log2 reference) (Fyn kinase domain; [6]): -0.247 | Fyn hit? (Fyn kinase domain; [7]): FALSE | Hck mean of log2(enrichment) (Hck kinase domain; mean of log2(variant) / mean of log2(reference), R1-R4): 0.3462 | Hck enrich. R1 (Hck kinase domain; [3]): 0.3734 | Hck enrich. R3 (Hck kinase domain; [4]): 0.3895 | Hck enrich. R4 (Hck kinase domain; [5]): 0.2207 | Hck difference (variant - reference) (Hck kinase domain; [6]): -0.2528 | Hck hit? (Hck kinase domain; [7]): FALSE | c-Abl mean of log2(enrichment) (c-Abl kinase domain; [2]): -0.576 | c-Abl enrich. R1 (c-Abl kinase domain; [3]): 0.4837 | c-Abl enrich. R3 (c-Abl kinase domain; [4]): 0.713 | c-Abl enrich. R4 (c-Abl kinase domain; [5]): 0.6552 | c-Abl hit? (c-Abl kinase domain; [7]): FALSE | Jak2 mean of log2(enrichment) (Jak2; mean of log2 of enrichment over R1-R3): -0.5861 | Jak2 enrich. R1 (Jak2; [3]): 0.5921 | Jak2 enrich. R3 (Jak2; [4]): 0.5314 | Jak2 difference (mean log2 variant - mean log2 reference) (Jak2; [6]): -0.3549 | Jak2 hit? (Jak2; [7]): FALSE | AncSZ mean of log2(enrichment) (AncSZ kinase domain; mean of log2 of enrichment over R1-R5): -0.7038 | AncSZ enrich. R1 (AncSZ kinase domain; [3]): 0.6587 | AncSZ enrich. R3 (AncSZ kinase domain; [4]): 0.7943 | AncSZ enrich. R4 (AncSZ kinase domain; [5]): 0.5045 | AncSZ enrich. R5 (AncSZ kinase domain; pTyr-Var library, enrichment score, replicate 5): 0.4741 | AncSZ difference (mean log2 variant - mean log2 reference) (AncSZ kinase domain; [6]): -0.2377 | AncSZ hit? (AncSZ kinase domain; [7]): FALSE | Fer mean of log2(enrichment) (Fer kinase domain; [2]): -1.311 | Fer enrich. R1 (Fer kinase domain; [3]): 0.4446 | Fer enrich. R3 (Fer kinase domain; [4]): 0.4557 | Fer enrich. R4 (Fer kinase domain; [5]): 0.3278 | Fer difference (mean log2 variant - mean log2 reference) (Fer kinase domain; [6]): -0.03599 | Fer hit? (Fer kinase domain; [7]): FALSE | Fes mean of log2(enrichment) (Fes; mean of log2 of enrichment over R1-R6): -0.2803 | Fes difference (mean log2 variant - mean log2 reference) (Fes; [6]): -0.2401 | difference (FGFR1 kinase domain; [8]): -0.151 | mean of log2(variant) (FGFR1 kinase domain; [9]): -1.149 | var. mean (FGFR1 kinase domain; [10]): 0.4624 | difference (FGFR3 kinase domain; [8]): -0.3951 | mean of log2(variant) (FGFR3 kinase domain; [9]): -1.056 | var. mean (FGFR3 kinase domain; [10]): 0.4887 | difference (EPHB1 kinase domain; [8]): -0.7634 | mean of log2(variant) (EPHB1 kinase domain; [11]): -1.369 | var. mean (EPHB1 kinase domain; [12]): 0.3903 | difference (EPHB2 kinase domain; [8]): -0.2469 | mean of log2(variant) (EPHB2 kinase domain; [11]): -1.144 | var. mean (EPHB2 kinase domain; [12]): 0.4818 | difference (MERTK kinase domain; [8]): -0.01109 | mean of log2(variant) (MERTK kinase domain; [11]): -1.438 | var. mean (MERTK kinase domain; [12]): 0.3721 | 4G10 (mean) [1]: 0.5753 | difference (c-Src SH2 domain; [8]): -0.03544 | mean of log2(variant) (c-Src SH2 domain; mean of log2 enrichment of variant peptide, R1-R3): -1.014 | var. mean (c-Src SH2 domain; variant peptide, mean of R1-R3): 0.4965 | difference (SHP2 C-SH2 domain; SHP2-C SH2, mean of log2(variant) minus mean of log2(reference)): -0.37 | mean of log2(variant) (SHP2 C-SH2 domain; SHP2-C SH2, mean of log2 enrichment of variant, R1-R3): -0.8263 | hit? (SHP2 C-SH2 domain; SHP2-C SH2, variant versus reference significant hit call): FALSE | var. mean (SHP2 C-SH2 domain; variant peptide enrichment score, SHP2-C SH2, mean of R1-R3): 0.5806 | difference (Grb2 SH2 domain; Grb2 SH2, mean of log2(variant) minus mean of log2(reference)): -0.167 | mean of log2(variant) (Grb2 SH2 domain; Grb2 SH2, mean of log2 enrichment of variant, R1-R3): -0.3239 | hit? (Grb2 SH2 domain; Grb2 SH2, variant versus reference significant hit call): FALSE | var. mean (Grb2 SH2 domain; variant peptide enrichment score, Grb2 SH2, mean of R1-R3): 0.8266
